Patent publication US8937065B2, “Compositions and methods for modulating a kinase” (Clevexel Pharma, priority 2011, dated 2015)

What was measured:
JAK3 = biological target: T1, JAK3 (Homo sapiens, UniProt P52333); assay: JAK3 enzymatic activity assay (Z'-LYTE Biochemical Kinase Assay, 2 hr preincubation at 4° C.); details: cell free, 1% DMSO, read-out: JAK3 activity cell free (2 hr preincubation at (4° C.) Kj)
T1 construct: purchased Invitrogen, Madison, Wis
T1 sequence (P52333 1-1124): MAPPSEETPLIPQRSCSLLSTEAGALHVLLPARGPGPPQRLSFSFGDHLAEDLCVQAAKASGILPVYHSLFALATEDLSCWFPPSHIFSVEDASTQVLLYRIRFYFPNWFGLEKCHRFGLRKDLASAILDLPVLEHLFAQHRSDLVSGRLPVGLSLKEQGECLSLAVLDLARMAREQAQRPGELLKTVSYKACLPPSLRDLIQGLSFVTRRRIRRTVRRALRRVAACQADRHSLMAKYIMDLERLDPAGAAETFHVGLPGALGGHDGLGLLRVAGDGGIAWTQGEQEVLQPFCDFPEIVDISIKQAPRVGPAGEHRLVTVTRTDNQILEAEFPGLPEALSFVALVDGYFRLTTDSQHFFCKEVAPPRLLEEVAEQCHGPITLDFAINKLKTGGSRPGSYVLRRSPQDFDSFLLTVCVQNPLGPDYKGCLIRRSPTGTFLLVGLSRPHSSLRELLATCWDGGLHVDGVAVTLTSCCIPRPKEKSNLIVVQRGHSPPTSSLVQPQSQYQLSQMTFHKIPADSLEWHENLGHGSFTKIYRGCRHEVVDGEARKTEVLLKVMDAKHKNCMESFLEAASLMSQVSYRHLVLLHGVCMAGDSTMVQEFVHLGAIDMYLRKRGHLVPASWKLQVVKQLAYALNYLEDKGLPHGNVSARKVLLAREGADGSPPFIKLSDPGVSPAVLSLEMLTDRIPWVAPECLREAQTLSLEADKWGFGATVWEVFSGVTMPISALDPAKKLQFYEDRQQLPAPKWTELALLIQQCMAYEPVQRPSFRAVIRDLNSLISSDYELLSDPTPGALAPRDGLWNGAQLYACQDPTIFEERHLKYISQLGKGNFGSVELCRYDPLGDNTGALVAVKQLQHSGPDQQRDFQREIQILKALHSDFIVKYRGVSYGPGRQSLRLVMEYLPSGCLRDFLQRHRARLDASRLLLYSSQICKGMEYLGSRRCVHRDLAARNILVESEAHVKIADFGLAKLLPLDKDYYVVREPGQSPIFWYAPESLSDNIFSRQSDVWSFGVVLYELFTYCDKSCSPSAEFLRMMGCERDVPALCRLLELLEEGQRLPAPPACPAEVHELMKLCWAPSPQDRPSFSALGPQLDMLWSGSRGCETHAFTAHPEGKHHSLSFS
Protocol: The assays were performed according to manufacturer's protocols, except that prior to the kinase reaction they were pre-incubated for 2 hours at 4° C., in order to be able to assay for time-dependent inhibition.
In addition to the compound, each 10 μL JAK3 kinase reaction contained 0.43-1.89 ng JAK3 and 2 μM peptide substrate in 50 mM HEPES (pH 7.5), 0.01% BRIJ-35, 10 mM MgCl2 and 1 mM EGTA. The kinase reaction was allowed to proceed for 1 hour.

IL-2 stimulated PBMCs = assay: IL-2-stimulated proliferation of PBMC (Cell Titer Glo); details: read-out: IC50 T cells outcome-based: IL-2 stimulated PBMCs Proliferation
Protocol: Fresh blood collection and PBMC separation assay • 1. Three donors were used to collect enough blood samples. The fresh blood was stored in Heparin Sodium tubes. • 2. Transferred blood to 50 ml centrifugal tube. 15 ml of blood was put into a tube. • 3. Added same volume of DPBS into the blood tube and mixed gently. • 4. Slowly underlayed 10 ml Ficoll using pipette (being careful to not disturb the 2 phases). • 5. Centrifuged 30 min at 800 g at RT without break. • 6. Aspirated the buffy coat (containing PBMC) at the interface between serum and ficoll. The PBMC was washed by enough DPBS and centrifuged at 900 g to remove the Ficoll. • 7. Added RPMI-1640 Medium to the collected PBMC and counted the concentration of PBMC. At least 1 million of PBMC were separated from 1 ml of blood.
IL-2-induced proliferation of PBMC by Cell Titer Glow assay • 1. Counted the PBMC numbers and adjusted cell density to 1.0*10^6/ml. • 2. Seeded cells in complete RPMI in the presence of PHA (phytohemagglutinin, 10 ug/ml). • 3. Added 100 μl of cell suspension to the 96-well plate (white) according to the planned plate map. So there were 1.0*10^5 cells in each well. Cultured for 3 days. • 4. Replaced media with complete RPMI plus IL-2, 100 units/ml and compounds, e.g compounds were added only at IL-2 incubation step. Cultured for 2 days. • 5. […] Recorded luminescence with Flexstation 3 and export the data.

Daudi cells = assay: Proliferation of Daudi cells (Cell Titer-Glo, 96 h); details: Homo sapiens, B cells, outcome-based, read-out: IC50 Proliferation Daudi cells (Burkitt's Lymphoma)
Protocol: Growth inhibitory activity against the human tumor cell lines, RS4; 11 and Daudi was determined using Promega's Cell Titer-Glo® assay. The human tumor cells were placed in a 96-well microculture plate (Costar white, flat bottom #3917) in a total volume of 90 μL/well. After 24 hours of incubation in a humidified incubator at 37° C. with 5% CO2 and 95% air, […] serially diluted test agents in growth medium were added to each well. After 96 total hours of culture in a CO2 incubator, the plated cells and Cell Titer-Glo® (Promega # G7571) reagents were brought to room temperature to equilibrate for 30 minutes. 100 μL of Cell Titer-Glo® reagent was added to each well. The plate was shaken for 2 minutes and then left to equilibrate for 10 minutes before reading luminescence on the Tecan GENios microplate reader.
Percent inhibition of cell growth was calculated relative to untreated control wells. All tests were performed in duplicate at each concentration level. The IC50 value for the test agents was estimated using Prism 3.03 by curve-fitting the data using the following four parameter-logistic equation: […]

Ramos cells = assay: Proliferation of Ramos cells (Cell Titer-Glo); details: Homo sapiens, B cells, outcome-based, read-out: IC50 Proliferation Ramos cells (Burkitt's lymphoma)

O=C(CN1CCOCC1)Nc1cccc(-c2nc(-c3c[nH]c(C(=O)N4CCCC4)c3)cs2)c1 [7A, 2-morpholino-N-(3-(4-(5-(pyrrolidine-1-carbonyl)-1H-pyrrol-3-yl)thiazol-2-yl)phenyl)acetamide]
Ki (JAK3): 1.1 to 10 µM | IC50 (IL-2 stimulated PBMCs): 3 to 6 µM | IC50 (Daudi cells): 159 nM | IC50 (Ramos cells): 534 nM
